Data on two compounds can be found in patent publication US8227463B2, “Amorphous body composed of heterocyclic compound, solid dispersion and pharmaceutical preparation each comprising the same, and process for production of the same” (Zenyaku Kogyo Kabushiki Kaisha, priority 2007, dated 2012).

Series [1] in a line: Blood concentration measurement of the test compound in rats after oral administration of the preparations. The class given is in vivo, SD male rats. As to the method: 7-week old SD male rats were purchased from Charles River Laboratories Japan (Inc.), preliminarily kept for a week and then used for experiments. Fasting began 16 hours before drug administration, and each of the preparations obtained from Examples 1, 4 and 5, when used, was mixed with distilled water to make a 100 mg/5 ml/kg test compound suspension, which was administered orally. Blood was sequentially collected from the tail vein using heparin-treated glass blood collection tubes from 15 min. to 24 or 30 hours after the administration of these preparations, centrifuged (3,000 rpm, 10 min., 4° C.) to obtain plasma, and the blood concentration of the test compound was evaluated (FIG. 3).

A short description of series [2]: Changes in the state of the amorphous body on storage, analysed by powder X-ray diffraction. It is filed as physicochemical. To be noted: ordinary temperature. Here is the method: When a crystal of the test compound obtained by common procedures was analyzed using the powder X-ray diffraction method, several characteristic peaks at diffraction angles 2θ=5 to 14, and especially at 2θ=7 to 10, were observed (FIG. 1). In contrast, when the preparations obtained in Examples 1 and 2 were analyzed using the powder X-ray diffraction (XRD) method, the peaks at diffraction angles characteristic to a crystalline form were not observed, and it was clear that the test compound was in an amorphized state in these preparations (FIG. 2).
In order to investigate the changes in the state of an amorphous body of the test compound, a solid dispersion produced by the spray drying method with a 1:2.5 test compound to HPMC compounding ratio was stored under certain conditions, and changes in the state of the amorphous body of the test compound were analyzed by powder X-ray diffraction similar to Example 3.
The present tablets were filled into a glass jar, sealed and evaluated for the stability of the amorphous body after 6 months of storage at 40° C. (75% RH).

`FC(F)c1nc2ccccc2n1-c1nc(N2CCOCC2)nc(N2CCOCC2)n1` [test compound, 2-(2-difluoromethylbenzimidazol-1-yl)-4,6-dimorpholino-1,3,5-triazine]: in series [1] (grain refinement using a jet mill, a microfluidizer or an agitation mill), the “Bioavailability in rats after grain refinement” value is “an improvement in the bioavailability was not observed”. Consider `FC(F)c1nc2ccccc2n1-c1nc(N2CCOCC2)nc(N2CCOCC2)n1` [amorphous form of the test compound, 2-(2-difluoromethylbenzimidazol-1-yl)-4,6-dimorpholino-1,3,5-triazine], for which, in series [1] (compared to the crystallized form), the “Bioavailability / absorbability of amorphized test compound” value is recorded as “extremely high absorbability”. In series [2], the “Stability of the amorphous state over time” value was “stable for a long period of time at ordinary temperature”.
